Reference: PubChem BioAssay (NCI)
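Step 1: Grow cells in 96-well plates. Step 2: Expose to compound for 48 hours at 5 concentrations. Step 3: Interpolate endpoints linearly; if unreached, use highest concentration. TGI: concentration producing complete growth inhibition.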

Assays:
Assay in all cases: NCI tumour cell line growth inhibition, 48 h
HOP-92 NSCLC = system: HOP-92 NSCLC
SK-MEL-28 melanoma = system: SK-MEL-28 melanoma
MALME-3M melanoma = system: MALME-3M melanoma
SF-539 CNS = system: SF-539 CNS
SR leukemia = system: SR leukemia
CCRF-CEM leukemia = system: CCRF-CEM leukemia
NCI-H460 lung = system: NCI-H460 lung
DMS 114 small cell lung = system: DMS 114 small cell lung
SF-295 CNS = system: SF-295 CNS
TK-10 renal = system: TK-10 renal
LXFL 529 NSCLC = system: LXFL 529 NSCLC
XF 498 CNS = system: XF 498 CNS
EKVX NSCLC = system: EKVX NSCLC
RPMI-8226 leukemia = system: RPMI-8226 leukemia
SNB-75 CNS = system: SNB-75 CNS
MOLT-4 leukemia = system: MOLT-4 leukemia
UO-31 renal = system: UO-31 renal
NCI-H23 lung = system: NCI-H23 lung
A549 NSCLC = system: A549 NSCLC
HCT-116 colon = system: HCT-116 colon
UACC-62 melanoma = system: UACC-62 melanoma
HCT-15 colon = system: HCT-15 colon
IGROV1 ovarian = system: IGROV1 ovarian
COLO 205 colon = system: COLO 205 colon
KM12 colon = system: KM12 colon
NCI-H522 lung = system: NCI-H522 lung
DMS 273 small cell lung = system: DMS 273 small cell lung
SK-MEL-2 melanoma = system: SK-MEL-2 melanoma
OVCAR-5 ovarian = system: OVCAR-5 ovarian
M14 melanoma = system: M14 melanoma
786-0 renal = system: 786-0 renal
U251 CNS = system: U251 CNS
RXF 393 renal = system: RXF 393 renal
SN12C renal = system: SN12C renal
SK-OV-3 ovarian = system: SK-OV-3 ovarian
HCC-2998 colon = system: HCC-2998 colon
SK-MEL-5 melanoma = system: SK-MEL-5 melanoma
UACC-257 melanoma = system: UACC-257 melanoma
OVCAR-4 ovarian = system: OVCAR-4 ovarian
HL-60(TB) leukemia = system: HL-60(TB) leukemia
K-562 leukemia = system: K-562 leukemia
OVCAR-8 ovarian = system: OVCAR-8 ovarian
DLD-1 colon = system: DLD-1 colon
SNB-19 CNS = system: SNB-19 CNS
M19-MEL melanoma = system: M19-MEL melanoma
SW-620 colon = system: SW-620 colon
SNB-78 CNS = system: SNB-78 CNS
HOP-62 NSCLC = system: HOP-62 NSCLC
CAKI-1 renal = system: CAKI-1 renal
NCI-H226 lung = system: NCI-H226 lung
SF-268 CNS = system: SF-268 CNS
HOP-18 NSCLC = system: HOP-18 NSCLC
OVCAR-3 ovarian = system: OVCAR-3 ovarian
LOX IMVI melanoma = system: LOX IMVI melanoma
KM20L2 colon = system: KM20L2 colon
ACHN renal = system: ACHN renal
HT29 colon = system: HT29 colon
RXF-631 renal = system: RXF-631 renal
A498 renal = system: A498 renal

CC#CC#C/C=C1\C=CC2(OC=CC2O)O1 (configuration not stated)
TGI (HOP-92 NSCLC): > 23.3 µM
TGI (SK-MEL-28 melanoma): > 23.3 µM
TGI (MALME-3M melanoma): > 23.3 µM
TGI (SF-539 CNS): > 23.3 µM
TGI (SR leukemia): > 23.3 µM
TGI (CCRF-CEM leukemia): > 21.1 µM
TGI (NCI-H460 lung): > 23.3 µM
TGI (DMS 114 small cell lung): > 22.5 µM
TGI (SF-295 CNS): > 23.3 µM
TGI (TK-10 renal): > 23.3 µM
TGI (LXFL 529 NSCLC): > 23.3 µM
TGI (XF 498 CNS): > 23.3 µM
TGI (EKVX NSCLC): > 16.7 µM
TGI (RPMI-8226 leukemia): > 23.3 µM
TGI (SNB-75 CNS): > 23.3 µM
TGI (MOLT-4 leukemia): > 23.3 µM
TGI (UO-31 renal): > 23.3 µM
TGI (NCI-H23 lung): > 23.3 µM
TGI (A549 NSCLC): > 23.3 µM
TGI (HCT-116 colon): 22.9 µM
TGI (UACC-62 melanoma): > 23.3 µM
TGI (HCT-15 colon): > 23.3 µM
TGI (IGROV1 ovarian): > 23.3 µM
TGI (COLO 205 colon): 6.83 µM
TGI (KM12 colon): 7.3 µM
TGI (NCI-H522 lung): > 20.3 µM
TGI (DMS 273 small cell lung): > 23.3 µM
TGI (SK-MEL-2 melanoma): > 23.3 µM
TGI (OVCAR-5 ovarian): 11.8 µM
TGI (M14 melanoma): > 23.3 µM
TGI (786-0 renal): > 23.3 µM
TGI (U251 CNS): > 23.3 µM
TGI (RXF 393 renal): > 22 µM
TGI (SN12C renal): > 23.3 µM
TGI (SK-OV-3 ovarian): > 23.3 µM
TGI (HCC-2998 colon): > 23.3 µM
TGI (SK-MEL-5 melanoma): > 23.3 µM
TGI (UACC-257 melanoma): > 23.3 µM
TGI (OVCAR-4 ovarian): > 23.3 µM
TGI (HL-60(TB) leukemia): > 23.3 µM
TGI (K-562 leukemia): > 23.3 µM
TGI (OVCAR-8 ovarian): > 23.3 µM
TGI (DLD-1 colon): > 23.3 µM
TGI (SNB-19 CNS): > 23.3 µM
TGI (M19-MEL melanoma): > 23.3 µM
TGI (SW-620 colon): > 23.3 µM
TGI (SNB-78 CNS): > 7.37 µM
TGI (HOP-62 NSCLC): > 23.3 µM
TGI (CAKI-1 renal): > 23.3 µM
TGI (NCI-H226 lung): > 23.3 µM
TGI (SF-268 CNS): > 23.3 µM
TGI (HOP-18 NSCLC): 14.9 µM
TGI (OVCAR-3 ovarian): > 20 µM
TGI (LOX IMVI melanoma): > 23.3 µM
TGI (KM20L2 colon): 10.4 µM
TGI (ACHN renal): > 23.3 µM
TGI (HT29 colon): > 23.3 µM

O=C(O)CCC1c2[nH]c3ccccc3c2CCN1Cc1ccccc1 (configuration not stated)
TGI (HOP-92 NSCLC): > 100 µM
TGI (SK-MEL-28 melanoma): > 100 µM
TGI (MALME-3M melanoma): > 100 µM
TGI (SF-539 CNS): > 100 µM
TGI (SR leukemia): > 100 µM
TGI (CCRF-CEM leukemia): > 100 µM
TGI (NCI-H460 lung): > 100 µM
TGI (DMS 114 small cell lung): > 100 µM
TGI (SF-295 CNS): > 100 µM
TGI (TK-10 renal): > 100 µM
TGI (LXFL 529 NSCLC): > 100 µM
TGI (EKVX NSCLC): > 100 µM
TGI (SNB-75 CNS): > 100 µM
TGI (MOLT-4 leukemia): > 100 µM
TGI (UO-31 renal): > 100 µM
TGI (NCI-H23 lung): > 100 µM
TGI (A549 NSCLC): > 100 µM
TGI (HCT-116 colon): > 100 µM
TGI (UACC-62 melanoma): > 100 µM
TGI (HCT-15 colon): > 100 µM
TGI (IGROV1 ovarian): > 100 µM
TGI (COLO 205 colon): > 100 µM
TGI (RXF-631 renal): > 100 µM
TGI (KM12 colon): > 100 µM
TGI (NCI-H522 lung): > 100 µM
TGI (DMS 273 small cell lung): > 100 µM
TGI (SK-MEL-2 melanoma): > 100 µM
TGI (OVCAR-5 ovarian): > 100 µM
TGI (M14 melanoma): > 100 µM
TGI (786-0 renal): > 100 µM
TGI (U251 CNS): > 100 µM
TGI (SN12C renal): > 100 µM
TGI (SK-OV-3 ovarian): > 100 µM
TGI (HCC-2998 colon): > 100 µM
TGI (SK-MEL-5 melanoma): > 100 µM
TGI (UACC-257 melanoma): > 100 µM
TGI (A498 renal): > 100 µM
TGI (OVCAR-4 ovarian): > 100 µM
TGI (HL-60(TB) leukemia): > 100 µM
TGI (K-562 leukemia): > 100 µM
TGI (OVCAR-8 ovarian): > 100 µM
TGI (DLD-1 colon): > 100 µM
TGI (SNB-19 CNS): > 100 µM
TGI (M19-MEL melanoma): > 100 µM
TGI (SW-620 colon): > 100 µM
TGI (SNB-78 CNS): > 100 µM
TGI (CAKI-1 renal): > 100 µM
TGI (NCI-H226 lung): > 100 µM
TGI (SF-268 CNS): > 100 µM
TGI (HOP-18 NSCLC): > 100 µM
TGI (OVCAR-3 ovarian): > 100 µM
TGI (LOX IMVI melanoma): > 100 µM
TGI (KM20L2 colon): > 100 µM
TGI (ACHN renal): > 100 µM
TGI (HT29 colon): > 100 µM
